PMC6832920, “Synthesis, Docking Studies, and In Vitro Evaluation of Some Novel Thienopyridines and Fused Thienopyridine–Quinolines as Antibacterial Agents and DNA Gyrase Inhibitors” (Molecules, 2019)
Converted amounts (≈) assume the structure as drawn.

How the values were obtained:
[1] = system: Staphylococcus aureus 25923; assay: agar disc-diffusion antibacterial assay; assay type: cell-based; details: S. aureus 25923, disc loaded with 100 μg, 37 °C, 24 h, read-out: diameter of inhibition zone
Method: (§1) The clinical control strains of Gram-negative bacteria (Escherichia coli 8739, Salmonella typhimurium 14028, Pseudomonas aeruginosa 27853) and Gram-positive bacteria (Bacillus subtilis 6633, Bacillus cereus 33018, Staphylococcus aureus 25923), were obtained from microbial inoculums by subculturing microorganisms into nutrient broth (NB) at 37 °C for 18 h, and were adjusted to 0.125 A° at 625 nm (equivalent to a McFarland 0.5) in 2-fold NB. A 100 μL measure of NB containing each test microorganism was added to the sterile Petri dishes. Antibacterial testing was carried out on all compounds (3a,b–14) using the agar disc-diffusion method [40]. Sterile nutrients were inoculated with 100 μL cell suspension of the chosen test microorganism and poured into Petri dishes (20 cm diameter). Filter paper discs (Whatman, No.3, diameter 5 mm) were loaded with 10 μL containing 100 μg of the tested compounds, as well as the standard drug. Composite compound disks were placed on the surface of inoculated agar plates and kept at low temperatures before incubation in order to support the swelling and diffusion of the microbial growth. The plates were incubated at 37 °C in the incubator. Experiments were performed in duplicate and the diameters of inhibition zones were measured after 24 h. A diameter of inhibition zone (DIZ) assay was performed to evaluate the antimicrobial potential of the compounds against the tested organisms compared with reference antibiotics.

[2] = system: Bacillus cereus 33018; assay: MIC determination by dilution procedure; assay type: cell-based; details: B. cereus 33018, dilutions 125-1.95 μg/mL, read-out: minimum inhibitory concentration (MIC)
Method: (§2) A 100 μL measure of NB containing each test microorganism was added to the sterile Petri dishes. Antibacterial testing was carried out on all compounds (3a,b–14) using the agar disc-diffusion method [40]. Sterile nutrients were inoculated with 100 μL cell suspension of the chosen test microorganism and poured into Petri dishes (20 cm diameter). Filter paper discs (Whatman, No.3, diameter 5 mm) were loaded with 10 μL containing 100 μg of the tested compounds, as well as the standard drug. Composite compound disks were placed on the surface of inoculated agar plates and kept at low temperatures before incubation in order to support the swelling and diffusion of the microbial growth. The plates were incubated at 37 °C in the incubator. Experiments were performed in duplicate and the diameters of inhibition zones were measured after 24 h. A diameter of inhibition zone (DIZ) assay was performed to evaluate the antimicrobial potential of the compounds against the tested organisms compared with reference antibiotics.

[3] = system: Salmonella typhimurium 14028; assay: MIC determination by dilution procedure; assay type: cell-based; details: Salmonella enterica; S. typhimurium 14028; dilutions 125-1.95 μg/mL; read-out: minimum inhibitory concentration (MIC)
Method: (§3) The clinical control strains of Gram-negative bacteria (Escherichia coli 8739, Salmonella typhimurium 14028, Pseudomonas aeruginosa 27853) and Gram-positive bacteria (Bacillus subtilis 6633, Bacillus cereus 33018, Staphylococcus aureus 25923), were obtained from microbial inoculums by subculturing microorganisms into nutrient broth (NB) at 37 °C for 18 h, and were adjusted to 0.125 A° at 625 nm (equivalent to a McFarland 0.5) in 2-fold NB. A 100 μL measure of NB containing each test microorganism was added to the sterile Petri dishes. Antibacterial testing was carried out on all compounds (3a,b–14) using the agar disc-diffusion method [40]. Sterile nutrients were inoculated with 100 μL cell suspension of the chosen test microorganism and poured into Petri dishes (20 cm diameter). Filter paper discs (Whatman, No.3, diameter 5 mm) were loaded with 10 μL containing 100 μg of the tested compounds, as well as the standard drug. Composite compound disks were placed on the surface of inoculated agar plates and kept at low temperatures before incubation in order to support the swelling and diffusion of the microbial growth. The plates were incubated at 37 °C in the incubator. Experiments were performed in duplicate and the diameters of inhibition zones were measured after 24 h.

[4] = target: T1, DNA gyrase from E. coli (Escherichia coli, UniProt P0AES6); assay: Escherichia coli DNA gyrase supercoiling inhibition assay; assay type: biochemical
T1 construct: purchased TopoGEN

[5] = system: Salmonella typhimurium 14028; assay: agar disc-diffusion antibacterial assay; assay type: cell-based; details: Salmonella enterica; S. typhimurium 14028; disc loaded with 100 μg; 37 °C, 24 h; read-out: diameter of inhibition zone
Method: as §3

[6] = system: Bacillus subtilis 6633; assay: agar disc-diffusion antibacterial assay; assay type: cell-based; details: B. subtilis 6633, disc loaded with 100 μg, 37 °C, 24 h, read-out: diameter of inhibition zone
Method: as §2

[7] = system: Pseudomonas aeruginosa 27853; assay: MIC determination by dilution procedure; assay type: cell-based; details: Pseudomonas aeruginosa, 27853, P. aeruginosa 27853; dilutions 125-1.95 μg/mL; read-out: minimum inhibitory concentration (MIC)
[8] = system: Bacillus subtilis 6633; assay: MIC determination by dilution procedure; assay type: cell-based; details: B. subtilis 6633, dilutions 125-1.95 μg/mL, read-out: minimum inhibitory concentration (MIC)
Method: as §2

[9] = system: Bacillus cereus 33018; assay: agar disc-diffusion antibacterial assay; assay type: cell-based; details: B. cereus 33018, disc loaded with 100 μg, 37 °C, 24 h, read-out: diameter of inhibition zone
Method: as §2

[10] = system: Pseudomonas aeruginosa 27853; assay: agar disc-diffusion antibacterial assay; assay type: cell-based; details: P. aeruginosa 27853, disc loaded with 100 μg, 37 °C, 24 h, read-out: diameter of inhibition zone
Method: as §1

[11] = system: Staphylococcus aureus 25923; assay: MIC determination by dilution procedure; assay type: cell-based; details: Staphylococcus aureus, 25923, S. aureus 25923; dilutions 125-1.95 μg/mL; read-out: minimum inhibitory concentration (MIC)
Method: as §2

[12] = system: Escherichia coli 8739; assay: MIC determination by dilution procedure; assay type: cell-based; details: E. coli 8739, dilutions 125-1.95 μg/mL, read-out: minimum inhibitory concentration (MIC)
[13] = system: Escherichia coli 8739; assay: agar disc-diffusion antibacterial assay; assay type: cell-based; details: E. coli 8739, disc loaded with 100 μg, 37 °C, 24 h, read-out: diameter of inhibition zone
Method: as §1

| Compound | zone of inhibition at 100 µg/disc [1] [mm] | MIC [2] [µg/mL] | MIC [3] [µg/mL] | IC50 [4] [µM] | zone of inhibition at 100 µg/disc [5] [mm] | zone of inhibition at 100 µg/disc [6] [mm] | MIC [7] [µg/mL] | MIC [8] [µg/mL] | zone of inhibition at 100 µg/disc [9] [mm] | zone of inhibition at 100 µg/disc [10] [mm] | MIC [11] [µg/mL] | MIC [12] [µg/mL] | zone of inhibition at 100 µg/disc [13] [mm] | melting point [°C] |
| --- | --- | --- | --- | --- | --- | --- | --- | --- | --- | --- | --- | --- | --- | --- |
| COc1ccc(-c2cc(-c3ccco3)nc3sc(C(N)=O)c(N)c23)cc1 [Compound 3a, 3-Amino-6-(furan-2-yl)-4-(4-methoxyphenyl)thieno[2,3-b]pyridine-2-carboxamide] | 12 | 31.2 (≈ 85.5 µM) | 15.6 (≈ 42.8 µM) | 2.26 ± 0.19 | 15 | 10 | 15.6 (≈ 42.8 µM) | 31.2 (≈ 85.5 µM) | 13 | 15 | 31.2 (≈ 85.5 µM) | 15.6 (≈ 42.8 µM) | 18 | – |
| NC(=O)c1sc2nc(-c3ccco3)cc(-c3cccs3)c2c1N [Compound 3b, 3-Amino-6-(furan-2-yl)-4-(thiophen-2-yl)thieno[2,3-b]pyridine-2-carboxamide] | 13 | 15.6 (≈ 45.8 µM) | 15.6 (≈ 45.8 µM) | 4.5 ± 0.32 | 18 | 12 | 31.2 (≈ 91.5 µM) | 31.2 (≈ 91.5 µM) | 18 | 13 | 31.2 (≈ 91.5 µM) | 15.6 (≈ 45.8 µM) | 19 | 253 |
| Nc1c2c(nc3c1sc1nc(-c4ccco4)cc(-c4cccs4)c13)CCCC2 [Compound 5b, 2-(Furan-2-yl)-4-(thiophen-2-yl)-6,7,8,9-tetrahydropyrido[3′,2′:4,5]thieno[3,2-b]quinolin-10-amine] | 13 | 15.6 (≈ 38.7 µM) | 15.6 (≈ 38.7 µM) | 16.7 ± 0.88 | 17 | 12 | 15.6 (≈ 38.7 µM) | 31.2 (≈ 77.4 µM) | 16 | 14 | 31.2 (≈ 77.4 µM) | 15.6 (≈ 38.7 µM) | 15 | 248 |
| COc1ccc(-c2cc(-c3ccco3)nc3sc4c(NC(=O)CCl)c5c(nc4c23)CCCC5)cc1 [Compound 6a, 2-Chloro-N-(2-(furan-2-yl)-4-(4-methoxyphenyl)-6,7,8,9-tetrahydropyrido[3′,2′:4,5]thieno[3,2-b]quinolin-10-yl)acetamide] | 12 | 31.2 (≈ 62 µM) | – | 13.7 ± 0.65 | – | 10 | 31.2 (≈ 62 µM) | 31.2 (≈ 62 µM) | 13 | 13 | 31.2 (≈ 62 µM) | 31.2 (≈ 62 µM) | 13 | 342 to 343 |
| O=C(CCl)Nc1c2c(nc3c1sc1nc(-c4ccco4)cc(-c4cccs4)c13)CCCC2 [Compound 6b, 2-Chloro-N-(2-(furan-2-yl)-4-(thiophen-2-yl)-6,7,8,9-tetrahydropyrido[3′,2′:4,5]thieno[3,2-b]quinolin-10-yl)acetamide] | – | 15.6 (≈ 32.6 µM) | 31.2 (≈ 65.1 µM) | 5.95 ± 0.34 | 12 | 15 | 31.2 (≈ 65.1 µM) | 15.6 (≈ 32.6 µM) | 15 | 12 | – | 15.6 (≈ 32.6 µM) | 16 | 338 |
| CC1=NN=C(Nc2c3c(nc4c2sc2nc(-c5ccco5)cc(-c5cccs5)c24)CCCC3)C1 [Compound 14, 2-(furan-2-yl)-N-(5-methyl-4H-pyrazol-3-yl) -4-(thiophen-2-yl)-6,7,8,9-tetrahydropyrido[3′,2′:4,5]thieno[3,2-b]quinolin-10-amine] | 13 | 15.6 (≈ 32.3 µM) | 31.2 (≈ 64.6 µM) | 11.7 ± 0.93 | 12 | 16 | 31.2 (≈ 64.6 µM) | 15.6 (≈ 32.3 µM) | 17 | 10 | 31.2 (≈ 64.6 µM) | 15.6 (≈ 32.3 µM) | 15 | 274 |
